Test results reported in ChEMBL document CHEMBL1125575, “2-[(2-pyridylmethyl)sulfinyl]-1H-thieno[3,4-d]imidazoles. A novel class of gastric H+/K(+)-ATPase inhibitors” (J Med Chem, 1992).
pIC50: −log10 of the molar value.

What was measured:
animal or person = settings: Canis lupus familiaris, Stomach, iv, read-out: Inhibition
Rattus norvegicus = species: Rattus norvegicus; experiment: animal or person; settings: Stomach, iv, read-out: Inhibition
Oryctolagus cuniculus = species: Oryctolagus cuniculus; experiment: cells; assay type: functional, organism-based, Stomach
Description: In vitro inhibition of 14C amino-pyrine uptake was determined in isolated rabbit gastric glands after dbcAMP stimulation

Canis familiaris = species: Canis familiaris; experiment: animal or person; settings: Canis lupus familiaris, Stomach, intraduodenal, read-out: Inhibition

Row | SMILES | inhibition in vivo at 0.3 mg/kg (animal or person) | inhibition in vivo at 0.5 mg/kg (Rattus norvegicus) | pIC50 (Oryctolagus cuniculus; Stomach) | inhibition in vivo at 1 mg/kg (Canis familiaris) | pIC50 (Oryctolagus cuniculus)
1 | COc1c(OCc2ccc(F)cc2)ccnc1C[S+]([O-])c1nc2cscc2[nH]1 (stereo unspecified) | 73% | 78% | 6.52 | 76% | 
2 | [O-][S+](Cc1nccc(OCC(F)(F)F)c1Cl)c1nc2cscc2[nH]1 (stereo unspecified) |  |  | 3.00 |  | 
3 | COc1c(C)cnc(C[S+]([O-])c2nc3cscc3[nH]2)c1Cl (stereo unspecified) | 52% | 43% |  |  | 
4 | COc1ccnc(C[S+]([O-])c2nc3cscc3[nH]2)c1C (stereo unspecified) |  |  | 3.00 |  | 
5 | CCCOc1ccnc(C[S+]([O-])c2nc3cscc3[nH]2)c1Cl (stereo unspecified) |  |  | 5.52 |  | 
6 | Cc1ccc(C[S+]([O-])c2nc3c(C)sc(C)c3[nH]2)nc1 (stereo unspecified) | 46% | 58% | 5.22 |  | 
7 | [O-][S+](Cc1nccc(Oc2ccccc2)c1Cl)c1nc2cscc2[nH]1 (stereo unspecified) |  | 0% | 4.21 |  | 
8 | CCOc1ccnc(C[S+]([O-])c2nc3cscc3[nH]2)c1Cl (stereo unspecified) |  |  | 5.70 |  | 
9 | COc1c(C)cnc(C[S+]([O-])c2nc3c(-c4ccccc4)scc3[nH]2)c1C (stereo unspecified) |  | 46% | 5.38 | 39% | 
10 | [O-][S+](Cc1cc(Oc2ccc(F)cc2F)ccn1)c1nc2cscc2[nH]1 (stereo unspecified) | 74% | 56% | 6.52 |  | 
11 | Cc1c(OCC(F)(F)C(F)(F)F)ccnc1C[S+]([O-])c1nc2cscc2[nH]1 (stereo unspecified) | 64% | 72% | 6.30 | 45% | 
12 | [O-][S+](Cc1cc(OCc2cc(C(F)(F)F)cc(C(F)(F)F)c2)ccn1)c1nc2cscc2[nH]1 (stereo unspecified) |  | 43% | 5.96 | 87% | 
13 | [O-][S+](Cc1ncccc1Cl)c1nc2cscc2[nH]1 (stereo unspecified) |  |  | 6.00 |  | 
14 | [O-][S+](Cc1cc(OCc2ccc(Cl)cc2)ccn1)c1nc2cscc2[nH]1 (stereo unspecified) |  | 78% | 6.40 |  | 
15 | [O-][S+](Cc1cc(OCC(F)(F)C(F)F)ccn1)c1nc2cscc2[nH]1 (stereo unspecified) | 66% | 89% | 5.70 | 91% | 
16 | COc1ccnc(C[S+]([O-])c2nc3cscc3[nH]2)c1OC(F)(F)C(F)F (stereo unspecified) | 65% | 51% | 5.52 | 14% | 
17 | COc1cc(C[S+]([O-])c2nc3cscc3[nH]2)ncc1Br (stereo unspecified) | 59% | 62% | 4.72 | 53% | 
18 | [O-][S+](Cc1ncccc1OCC(F)(F)F)c1nc2cscc2[nH]1 (stereo unspecified) |  | 23% | 3.92 |  | 
19 | Cc1cnc(C[S+]([O-])c2nc3cscc3[nH]2)c(C)c1 (stereo unspecified) | 91% |  | 4.30 |  | 
20 | COc1c(C)cnc(C[S+]([O-])c2nc3cscc3[nH]2)c1C (stereo unspecified) |  |  | 3.00 |  | 
21 | [O-][S+](Cc1nccc(OCC(F)(F)C(F)(F)F)c1Cl)c1nc2cscc2[nH]1 (stereo unspecified) |  |  | 5.00 |  | 
22 | Cc1cccc(C[S+]([O-])c2nc3cscc3[nH]2)n1 (stereo unspecified) |  |  | 3.52 |  | 
23 | [O-][S+](Cc1cc(Oc2cccc(C(F)(F)F)c2)ccn1)c1nc2cscc2[nH]1 (stereo unspecified) |  | 64% | 5.66 | 66% | 
24 | [O-][S+](Cc1cc(OCc2cc(Cl)cc(Cl)c2)ccn1)c1nc2cscc2[nH]1 (stereo unspecified) |  | 64% | 5.96 |  | 
25 | [O-][S+](Cc1ccc(Cl)cn1)c1nc2cscc2[nH]1 (stereo unspecified) |  | 26% | 3.00 |  | 
26 | Cc1sc(C)c2[nH]c([S+]([O-])Cc3ccccn3)nc12 (stereo unspecified) |  |  | 4.82 |  | 
27 | Cc1cccnc1C[S+]([O-])c1nc2cscc2[nH]1 (stereo unspecified) |  |  | 4.60 |  | 
28 | [O-][S+](Cc1cc(OC(F)F)ccn1)c1nc2cscc2[nH]1 (stereo unspecified) |  |  |  |  | 3.00

Row | SMILES | inhibition in vivo at 0.3 mg/kg (animal or person) | inhibition in vivo at 0.5 mg/kg (Rattus norvegicus) | pIC50 (Oryctolagus cuniculus; Stomach) | inhibition in vivo at 1 mg/kg (Canis familiaris) | pIC50 (Oryctolagus cuniculus)
29 | [O-][S+](Cc1nccc(OCC(F)(F)F)c1OCC(F)(F)F)c1nc2cscc2[nH]1 (stereo unspecified) | 13% | 35% | 6.10 | 45% | 
30 | COc1ccc(C[S+]([O-])c2nc3cscc3[nH]2)nc1 (stereo unspecified) |  | 38% | 3.00 |  | 
31 | Cc1sc(C)c2[nH]c([S+]([O-])Cc3cc(OCC(F)(F)C(F)(F)C(F)(F)F)ccn3)nc12 (stereo unspecified) |  |  | 4.59 |  | 
32 | [O-][S+](Cc1cc(OCC(F)(F)C(F)(F)F)ccn1)c1nc2cscc2[nH]1 (stereo unspecified) |  | 81% | 6.00 |  | 
33 | COCCOc1ccnc(C[S+]([O-])c2nc3cscc3[nH]2)c1Cl (stereo unspecified) |  | 63% |  |  | 
34 | COc1ccnc(C[S+]([O-])c2nc3ccsc3[nH]2)c1 (stereo unspecified) |  |  | 3.00 |  | 
35 | [O-][S+](Cc1ncccc1OC(F)F)c1nc2cscc2[nH]1 (stereo unspecified) |  |  | 3.00 |  | 
36 | CC(C)Oc1ccnc(C[S+]([O-])c2nc3cscc3[nH]2)c1Cl (stereo unspecified) | 87% | 80% | 6.00 |  | 
37 | [O-][S+](Cc1cc(Oc2ccc(Cl)c(Cl)c2)ccn1)c1nc2cscc2[nH]1 (stereo unspecified) | 62% | 49% | 5.64 |  | 
38 | COc1ccc(-c2scc3[nH]c([S+]([O-])Cc4ncc(C)c(OC)c4C)nc23)cc1 (stereo unspecified) |  | 24% | 5.52 |  | 
39 | COC(=O)c1sc2[nH]c([S+]([O-])Cc3ccccn3)nc2c1C(=O)OC (stereo unspecified) |  |  | 3.00 |  | 
40 | COc1c(OCc2cc(C(F)(F)F)cc(C(F)(F)F)c2)ccnc1C[S+]([O-])c1nc2cscc2[nH]1 (stereo unspecified) |  | 65% | 6.30 |  | 
41 | Cc1sc(C)c2[nH]c([S+]([O-])Cc3nccc(OC(C)C)c3Cl)nc12 (stereo unspecified) |  | 32% | 5.60 |  | 
42 | COc1c(OCc2ccc(C(F)(F)F)cc2)ccnc1C[S+]([O-])c1nc2cscc2[nH]1 (stereo unspecified) |  | 51% | 6.30 | 91% | 
43 | CC(=O)c1scc2[nH]c([S+]([O-])Cc3cc(OCC(F)(F)F)ccn3)nc12 (stereo unspecified) |  |  | 4.49 |  | 
44 | [O-][S+](Cc1ccccn1)c1nc2c(-c3ccccc3)scc2[nH]1 (stereo unspecified) |  |  | 4.51 |  | 
45 | [O-][S+](Cc1cc(OCc2ccc(F)cc2F)ccn1)c1nc2cscc2[nH]1 (stereo unspecified) |  | 76% | 6.00 |  | 
46 | [O-][S+](Cc1ncccc1F)c1nc2cscc2[nH]1 (stereo unspecified) |  |  | 3.00 |  | 
47 | [O-][S+](Cc1cc(OCc2ccccc2)ccn1)c1nc2cscc2[nH]1 (stereo unspecified) |  |  | 6.30 |  | 
48 | COc1ccnc(C[S+]([O-])c2nc3c(C)sc(C)c3[nH]2)c1 (stereo unspecified) | 66% |  | 4.92 |  | 
49 | Cc1sc(C)c2[nH]c([S+]([O-])Cc3cc(OCC(F)(F)C(F)(F)F)ccn3)nc12 (stereo unspecified) |  |  | 6.00 |  | 
50 | [O-][S+](Cc1cc(OCc2cc(F)cc(F)c2)ccn1)c1nc2cscc2[nH]1 (stereo unspecified) |  | 70% | 6.15 | 96% | 
51 | COC(=O)c1sc2[nH]c([S+]([O-])Cc3cc(OC)ccn3)nc2c1C(=O)OC (stereo unspecified) |  |  | 3.00 |  | 
52 | CCCCOc1ccnc(C[S+]([O-])c2nc3cscc3[nH]2)c1 (stereo unspecified) | 87% | 81% | 6.00 |  | 
53 | COc1ccnc(C[S+]([O-])c2nc3cscc3[nH]2)c1OC (stereo unspecified) | 82% | 54% | 5.44 |  | 
54 | [O-][S+](Cc1cc(Oc2ccc(Cl)cc2)ccn1)c1nc2cscc2[nH]1 (stereo unspecified) | 76% | 66% | 5.70 |  | 
55 | [O-][S+](Cc1cc(OCC(F)(F)C(F)(F)F)c(Cl)cn1)c1nc2cscc2[nH]1 (stereo unspecified) |  | 38% |  |  | 
